Laboratory results as given in ChEMBL document CHEMBL4765450, “The components and activities analysis of a novel anticoagulant candidate dHG-5” (Eur J Med Chem, 2020).
pIC50: −log10 of the molar value. Active and inactive are the calls of the source. No cut-off for these calls is given here.

Key:
[1] = molecular target: T1, Coagulation factor IX/VIII (Homo sapiens) (UniProt P00740+P00451); assay: (§1) Inhibition of human citrated plasma iXase (factor 8a-factor 9a complex) preincubated for 2 mins followed by factor 10 addition and measured after 1 min by FXa chromogenic substrate SXa-11 based assay relative to dHG-5; format: protein-complex assay; conditions: time 3.0 min
[2] = molecular target: Coagulation factor X (Homo sapiens) (UniProt P00742); assay: Inhibition of factor 10a (unknown origin) at IC50 preincubated for 1 min followed by chromogenic substrate addition and measured for 2 mins in presence of AT-III; conditions: time 3.0 min
Sequence of Coagulation factor X (Homo sapiens) (P00742 41-179 limits assumed): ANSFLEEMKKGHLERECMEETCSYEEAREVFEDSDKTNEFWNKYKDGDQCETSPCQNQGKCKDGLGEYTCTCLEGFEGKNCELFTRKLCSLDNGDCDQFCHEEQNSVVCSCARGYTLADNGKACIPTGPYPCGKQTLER
Sequence of Coagulation factor X (Homo sapiens) (P00742 235-488 limits assumed): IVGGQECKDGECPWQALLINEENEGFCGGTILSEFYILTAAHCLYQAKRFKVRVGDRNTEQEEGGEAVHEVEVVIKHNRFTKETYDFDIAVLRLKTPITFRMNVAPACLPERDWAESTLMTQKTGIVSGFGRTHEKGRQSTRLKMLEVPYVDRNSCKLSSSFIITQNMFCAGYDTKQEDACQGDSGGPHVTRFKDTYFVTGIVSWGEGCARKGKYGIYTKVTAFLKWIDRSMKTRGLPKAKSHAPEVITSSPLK

[3] = molecular target: T1, Coagulation factor IX/VIII (Homo sapiens); assay: as §1, with “complex) assessed as activity potency of oligosaccharides multiplied by the percentage of oligosaccharides in dHG-5” for “complex)”; format: protein-complex assay; conditions: time 3.0 min
[4] = molecular target: T2, Coagulation factor XII (Homo sapiens) (UniProt P00748); assay: Inhibition of factor 12a (unknown origin) at IC50 using kallikrein chromogenic substrate preincubated for 1 min followed by chromogenic substrate addition and measured for 2 mins in presence of AT-III; conditions: time 3.0 min
T2 sequence (whole entry): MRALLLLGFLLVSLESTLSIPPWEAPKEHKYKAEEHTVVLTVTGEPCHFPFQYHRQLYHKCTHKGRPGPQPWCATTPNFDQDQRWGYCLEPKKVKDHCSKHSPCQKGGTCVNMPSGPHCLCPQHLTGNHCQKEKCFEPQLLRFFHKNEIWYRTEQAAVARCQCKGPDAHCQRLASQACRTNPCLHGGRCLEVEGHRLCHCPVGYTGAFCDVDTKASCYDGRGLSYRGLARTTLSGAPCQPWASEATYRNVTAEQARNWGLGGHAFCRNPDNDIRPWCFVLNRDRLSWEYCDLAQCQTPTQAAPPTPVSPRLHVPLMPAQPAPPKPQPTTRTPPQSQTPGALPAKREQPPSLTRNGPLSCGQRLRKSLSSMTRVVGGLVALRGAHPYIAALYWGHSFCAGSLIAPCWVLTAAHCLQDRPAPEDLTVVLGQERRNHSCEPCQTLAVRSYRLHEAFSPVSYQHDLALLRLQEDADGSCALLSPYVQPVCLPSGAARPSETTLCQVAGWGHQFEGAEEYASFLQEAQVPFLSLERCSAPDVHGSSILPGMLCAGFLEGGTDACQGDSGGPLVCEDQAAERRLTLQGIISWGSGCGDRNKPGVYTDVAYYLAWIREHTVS

[5] = molecular target: Coagulation factor XI (Homo sapiens) (UniProt P03951); assay: Inhibition of factor 11a (unknown origin) at IC90 using S-2366 as substrate preincubated for 1 min followed by chromogenic substrate addition and measured for 2 mins in presence of AT-III; conditions: time 3.0 min
Sequence of Coagulation factor XI (Homo sapiens) (P03951 19-387 limits assumed): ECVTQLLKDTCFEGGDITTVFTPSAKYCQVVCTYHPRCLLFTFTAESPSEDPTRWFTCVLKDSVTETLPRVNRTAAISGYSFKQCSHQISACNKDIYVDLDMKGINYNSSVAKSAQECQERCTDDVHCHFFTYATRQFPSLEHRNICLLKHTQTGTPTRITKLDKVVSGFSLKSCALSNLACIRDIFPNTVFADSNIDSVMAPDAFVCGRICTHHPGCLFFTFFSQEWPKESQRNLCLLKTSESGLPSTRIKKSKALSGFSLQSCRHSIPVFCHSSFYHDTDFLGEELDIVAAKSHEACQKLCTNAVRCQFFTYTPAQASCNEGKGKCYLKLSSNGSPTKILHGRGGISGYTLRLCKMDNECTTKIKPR
Sequence of Coagulation factor XI (Homo sapiens) (P03951 388-625 limits assumed): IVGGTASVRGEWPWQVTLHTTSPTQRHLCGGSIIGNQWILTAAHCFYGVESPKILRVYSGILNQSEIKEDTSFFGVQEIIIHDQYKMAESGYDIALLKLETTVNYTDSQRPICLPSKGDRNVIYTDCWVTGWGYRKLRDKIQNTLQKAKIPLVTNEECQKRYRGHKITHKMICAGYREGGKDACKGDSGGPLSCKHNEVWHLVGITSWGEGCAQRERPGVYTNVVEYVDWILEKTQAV

[6] = molecular target: Coagulation factor IX/VIII (Homo sapiens, UniProt P00451+P00740); assay: Inhibition of human citrated plasma iXase (factor 8a-factor 9a complex) preincubated for 2 mins followed by factor 10 addition and measured after 1 min by FXa chromogenic substrate SXa-11 based assay; format: protein-complex assay
Sequence of Coagulation factor IX/VIII (P00451 20-759 limits assumed): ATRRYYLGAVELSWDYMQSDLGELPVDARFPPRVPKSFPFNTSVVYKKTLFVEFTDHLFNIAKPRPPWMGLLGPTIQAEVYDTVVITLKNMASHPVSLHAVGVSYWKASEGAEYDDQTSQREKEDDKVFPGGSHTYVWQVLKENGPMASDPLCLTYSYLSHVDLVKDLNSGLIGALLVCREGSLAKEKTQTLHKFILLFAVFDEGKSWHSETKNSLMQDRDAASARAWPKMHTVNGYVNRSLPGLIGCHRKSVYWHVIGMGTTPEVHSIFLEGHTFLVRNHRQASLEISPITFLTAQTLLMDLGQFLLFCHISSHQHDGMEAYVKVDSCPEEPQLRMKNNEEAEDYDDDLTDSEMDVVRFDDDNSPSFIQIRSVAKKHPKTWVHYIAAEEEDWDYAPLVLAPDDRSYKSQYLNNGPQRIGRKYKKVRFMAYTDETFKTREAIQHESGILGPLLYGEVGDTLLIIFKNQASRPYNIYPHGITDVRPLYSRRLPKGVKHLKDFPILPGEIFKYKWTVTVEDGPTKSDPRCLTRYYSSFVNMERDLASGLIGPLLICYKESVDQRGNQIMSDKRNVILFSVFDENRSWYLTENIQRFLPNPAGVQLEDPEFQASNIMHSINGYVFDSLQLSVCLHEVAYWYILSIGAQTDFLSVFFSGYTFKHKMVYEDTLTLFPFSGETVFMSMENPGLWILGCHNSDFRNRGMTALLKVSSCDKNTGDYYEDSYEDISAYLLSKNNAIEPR
Sequence of Coagulation factor IX/VIII (P00451 1668-2351 limits assumed): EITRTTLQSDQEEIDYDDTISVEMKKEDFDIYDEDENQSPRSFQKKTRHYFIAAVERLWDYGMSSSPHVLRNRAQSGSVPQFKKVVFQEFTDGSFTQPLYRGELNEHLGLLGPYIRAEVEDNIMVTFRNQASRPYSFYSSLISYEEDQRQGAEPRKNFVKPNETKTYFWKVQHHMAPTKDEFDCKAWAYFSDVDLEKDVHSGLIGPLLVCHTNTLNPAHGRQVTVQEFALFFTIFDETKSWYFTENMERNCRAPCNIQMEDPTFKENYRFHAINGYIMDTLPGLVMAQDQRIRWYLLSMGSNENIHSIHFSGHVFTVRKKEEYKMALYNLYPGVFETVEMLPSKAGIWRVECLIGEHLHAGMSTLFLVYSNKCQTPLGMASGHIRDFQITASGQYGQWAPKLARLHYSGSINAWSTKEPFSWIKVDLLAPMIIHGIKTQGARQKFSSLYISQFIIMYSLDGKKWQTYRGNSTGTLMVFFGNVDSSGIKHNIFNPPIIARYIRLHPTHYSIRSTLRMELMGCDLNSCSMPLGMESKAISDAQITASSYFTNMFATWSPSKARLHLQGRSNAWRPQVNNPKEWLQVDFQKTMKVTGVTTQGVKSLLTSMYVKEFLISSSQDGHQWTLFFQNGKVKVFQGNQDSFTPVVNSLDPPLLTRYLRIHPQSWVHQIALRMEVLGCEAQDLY
Sequence of Coagulation factor IX/VIII (P00740 47-191 limits assumed): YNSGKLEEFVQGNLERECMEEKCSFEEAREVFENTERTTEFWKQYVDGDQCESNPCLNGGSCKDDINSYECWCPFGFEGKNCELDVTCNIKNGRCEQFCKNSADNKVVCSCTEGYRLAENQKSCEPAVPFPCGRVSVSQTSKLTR
Sequence of Coagulation factor IX/VIII (P00740 227-461 limits assumed): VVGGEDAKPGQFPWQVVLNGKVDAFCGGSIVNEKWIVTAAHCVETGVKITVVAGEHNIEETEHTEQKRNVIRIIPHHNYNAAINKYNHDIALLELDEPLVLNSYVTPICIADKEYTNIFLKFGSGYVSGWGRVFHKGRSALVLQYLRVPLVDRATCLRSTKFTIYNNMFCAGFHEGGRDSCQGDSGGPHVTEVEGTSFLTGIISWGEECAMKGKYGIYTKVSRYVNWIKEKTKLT

[7] = molecular target: Coagulation factor XI (Homo sapiens) (UniProt P03951); assay: Inhibition of factor 11a (unknown origin) at IC50 using S-2366 as substrate preincubated for 1 min followed by chromogenic substrate addition and measured for 2 mins in presence of AT-III; conditions: time 3.0 min
[8] = molecular target: T2, Coagulation factor XII (Homo sapiens); assay: Inhibition of factor 12a (unknown origin) at IC50 using kallikrein chromogenic substrate preincubated for 1 min followed by chromogenic substrate addition and measured for 2 mins; conditions: time 3.0 min
[9] = molecular target: Coagulation factor X (Homo sapiens) (UniProt P00742); assay: Inhibition of factor 10a (unknown origin) at IC90 preincubated for 1 min followed by chromogenic substrate addition and measured for 2 mins in presence of AT-III relative to control; conditions: time 3.0 min
[10] = test system: Plasma; assay: Anticoagulation activity in human plasma assessed as drug level causing 20 times doubling of APTT preincubated for 2 mins followed by APTT reagent and measured after 3 mins by coagulometric method; format: functional; conditions: time 5 min
[11] = molecular target: T3, Coagulation factor IX (Homo sapiens, UniProt P00740); assay: Inhibition of factor 9a (unknown origin) binding to immobilized biotinylated oHG-11 assessed as activity potency of oligosaccharides multiplied by the percentage of oligosaccharides in dHG-5 by biolayer interferometry relative to dHG-5
T3 sequence (P00740 47-191 limits assumed): as the sequence (P00740 47-191 limits assumed) above
T3 sequence (P00740 227-461 limits assumed): as the sequence (P00740 227-461 limits assumed) above

[12] = test system: Plasma; assay: Anticoagulation activity in AT-III-deficient human plasma preincubated for 2 mins followed by APTT reagent and measured after 3 mins by coagulometric method; format: functional, cell-free; conditions: time 5.0 min
[13] = test system: Plasma; assay: Anticoagulation activity in human plasma assessed as drug level causing 20 times doubling of APTT by measuring activity potency of oligosaccharides multiplied by the percentage of oligosaccharides in dHG-5 preincubated for 2 mins followed by APTT reagent and measured after 3 mins by coagulometric method relative to dHG-5; format: functional; conditions: time 5 min
[14] = molecular target: Coagulation factor XI (Homo sapiens) (UniProt P03951); assay: Inhibition of factor 11a (unknown origin) at IC50 using S-2366 as substrate preincubated for 1 min followed by chromogenic substrate addition and measured for 2 mins; conditions: time 3.0 min
[15] = molecular target: T4, Coagulation factor VII (Homo sapiens) (UniProt P08709); assay: Inhibition of factor 7a (unknown origin) at IC50 using pefachrome factor VIIa as substrate preincubated for 1 min followed by chromogenic substrate addition and measured for 2 mins; conditions: time 3.0 min
T4 sequence (whole entry): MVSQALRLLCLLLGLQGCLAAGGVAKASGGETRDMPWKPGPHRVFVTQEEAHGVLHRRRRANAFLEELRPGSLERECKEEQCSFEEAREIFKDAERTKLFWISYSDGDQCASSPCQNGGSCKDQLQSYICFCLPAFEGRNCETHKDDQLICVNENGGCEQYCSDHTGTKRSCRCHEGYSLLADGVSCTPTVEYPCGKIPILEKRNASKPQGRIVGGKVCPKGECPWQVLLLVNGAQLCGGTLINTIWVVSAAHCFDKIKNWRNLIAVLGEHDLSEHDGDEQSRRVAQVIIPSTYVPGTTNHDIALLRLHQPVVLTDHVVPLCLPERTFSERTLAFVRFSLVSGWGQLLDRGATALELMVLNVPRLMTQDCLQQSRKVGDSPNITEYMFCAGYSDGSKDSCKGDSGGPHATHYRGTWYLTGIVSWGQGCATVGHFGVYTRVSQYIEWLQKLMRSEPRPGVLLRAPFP

[16] = molecular target: T4, Coagulation factor VII (Homo sapiens); assay: Inhibition of factor 7a (unknown origin) at IC50 using pefachrome factor VIIa as substrate preincubated for 1 min followed by chromogenic substrate addition and measured for 2 mins in presence of AT-III; conditions: time 3.0 min
[17] = test system: Plasma; assay: Anticoagulation activity in human plasma assessed as drug level causing 20 times doubling of APTT preincubated for 2 mins followed by APTT reagent and measured after 3 mins by coagulometric method relative to dHG-5; format: functional; conditions: time 5 min
[18] = molecular target: Prothrombin (Homo sapiens) (UniProt P00734); assay: Inhibition of factor 2a (unknown origin) at IC90 preincubated for 1 min followed by chromogenic substrate addition and measured for 2 mins in presence of AT-III; conditions: time 3.0 min
[19] = molecular target: T3, Coagulation factor IX; assay: Inhibition of factor 9a (unknown origin) binding to immobilized biotinylated oHG-11 by biolayer interferometry relative to dHG-5
[20] = molecular target: Coagulation factor X (Homo sapiens) (UniProt P00742); assay: Inhibition of factor 10a (unknown origin) at IC50 preincubated for 1 min followed by chromogenic substrate addition and measured for 2 mins; conditions: time 3.0 min
[21] = test system: Rattus norvegicus; assay: Antithrombotic activity in thromboplastin and stasis-induced Sprague-Dawley rat deep venous thrombosis model assessed as reduction in venous thrombosis at 13.5 mg/kg, sc administered 1 hr prior to thromboplastin addition for 20 secs followed by establishment of stasis for 20 mins; format: functional; design: scale not given: the % may be the effect or the level left; conditions: time 80.33 min, 1.339 h
[22] = molecular target: T3, Coagulation factor IX; assay: Inhibition of factor 9a (unknown origin) binding to immobilized biotinylated oHG-11 by biolayer interferometry
[23] = test system: Plasma; assay: Anticoagulation activity in HCII-deficient human plasma preincubated for 2 mins followed by APTT reagent and measured after 3 mins by coagulometric method; format: functional, cell-free; conditions: time 5.0 min
[24] = molecular target: Prothrombin (Homo sapiens) (UniProt P00734); assay: Inhibition of factor 2a (unknown origin) at IC50 preincubated for 1 min followed by chromogenic substrate addition and measured for 2 mins; conditions: time 3.0 min
[25] = molecular target: Prothrombin (Homo sapiens) (UniProt P00734); assay: Inhibition of factor 2a (unknown origin) at IC50 preincubated for 1 min followed by chromogenic substrate addition and measured for 2 mins in presence of AT-III; conditions: time 3.0 min
[26] = test system: Rattus norvegicus; assay: (§2) Antithrombotic activity in thromboplastin and stasis-induced Sprague-Dawley rat deep venous thrombosis model assessed as reduction in venous thrombosis at 13.5 mg/kg, sc administered 1 hr prior to thromboplastin addition for 20 secs followed by establishment of stasis for 20 mins relative to dHG-5; format: functional; conditions: time 80.33 min, 1.339 h
[27] = test system: Rattus norvegicus; assay: as §2, with “venous thrombosis by measuring activity potency of oligosaccharides multiplied by the percentage of oligosaccharides in dHG-5 at 13.5” for “venous thrombosis at 13.5”; format: functional; conditions: time 80.33 min, 1.339 h
[28] = test system: Rattus norvegicus; assay: Antithrombotic activity in thromboplastin and stasis-induced Sprague-Dawley rat deep venous thrombosis model assessed as reduction in venous thrombosis by measuring activity potency of oligosaccharides multiplied by the percentage of oligosaccharides in dHG-5 at 4.94 mg/kg, sc administered 1 hr prior to thromboplastin addition for 20 secs followed by establishment of stasis for 20 mins relative to dHG-5; format: functional; conditions: time 80.33 min, 1.339 h
[29] = test system: Plasma; assay: Induction of platelet aggregation in human platelet rich plasma at plasma peak concentration of 10 times anti-thrombosis ED50 measured after 10 mins by light transmission aggregometry
[30] = test system: Rattus norvegicus; assay: Antithrombotic activity in thromboplastin and stasis-induced Sprague-Dawley rat deep venous thrombosis model assessed as reduction in venous thrombosis at 4.94 mg/kg, sc administered 1 hr prior to thromboplastin addition for 20 secs followed by establishment of stasis for 20 mins relative to dHG-5; format: functional; conditions: time 80.33 min, 1.339 h
[31] = test system: Plasma; assay: Induction of platelet aggregation in rat wash platelet at plasma peak concentration of 10 times anti-thrombosis ED50 measured after 10 mins by light transmission aggregometry

| Ratio [1] [U] | inhibition [2] | Ratio [3] [U] | inhibition [4] | inhibition [5] | inhibition [7] | inhibition [8] | inhibition [9] [%] | Ratio [11] [U] | inhibition [14] | inhibition (active/not active) [15] | inhibition [16] | inhibition [18] | Ratio [19] [U] | inhibition [20] | inhibition [24] | SMILES | Activity [12] | Ratio [13] [U] | Ratio [17] [U] | Activity [23] | also measured |
| --- | --- | --- | --- | --- | --- | --- | --- | --- | --- | --- | --- | --- | --- | --- | --- | --- | --- | --- | --- | --- | --- |
| 0.36 | inactive | 0.02 | inactive | Active | inactive | inactive | 14.2 | 0.16 | inactive | Active | inactive | Active | 3.32 | inactive | inactive | CC(=O)N[C@H]1[C@H](O[C@@H]([C@H](O[C@@H]2O[C@@H](C)[C@@H](OS(=O)(=O)[O-])[C@@H](OS(=O)(=O)O)[C@@H]2O)[C@@H](O)CO)[C@H](O)C(=O)[O-])O[C@H](COS(=O)(=O)[O-])[C@H](OS(=O)(=O)[O-])[C@@H]1O[C@@H]1OC(C(=O)[O-])=C[C@H](O[C@@H]2O[C@@H](C)[C@@H](OS(=O)(=O)[O-])[C@@H](OS(=O)(=O)O)[C@@H]2O)[C@H]1O.[Na+].[Na+].[Na+].[Na+].[Na+].[Na+] | Active | 0.04 | 0.9 | Active | pIC50 [6]: < 5.52; EC [10]: 199 µM; Activity [21]: 30.8%; pIC50 [22]: 4.89; inhibition [25]: inactive; Ratio [26]: 3.96 U; Ratio [27]: 0.19 U |
| 8.98 | inactive | 1.56 | inactive | Active | inactive | inactive | 14.2 | 2.27 | inactive | inactive | inactive | Active | 13 | inactive | inactive | CC(=O)N[C@H]1[C@H](O[C@@H]([C@H](O[C@@H]2O[C@@H](C)[C@@H](OS(=O)(=O)[O-])[C@@H](OS(=O)(=O)O)[C@@H]2O)[C@@H](O)CO)[C@H](O)C(=O)[O-])O[C@@H](COS(=O)(=O)[O-])[C@H](OS(=O)(=O)[O-])[C@@H]1O[C@@H]1O[C@H](C(=O)[O-])[C@@H](O[C@@H]2O[C@H](COS(=O)(=O)[O-])[C@H](OS(=O)(=O)[O-])[C@H](O[C@@H]3OC(C(=O)[O-])=C[C@H](O[C@@H]4O[C@@H](C)[C@@H](OS(=O)(=O)[O-])[C@@H](S(=O)(=O)O)[C@@H]4O)[C@H]3O)[C@H]2NC(C)=O)[C@H](O[C@@H]2O[C@@H](C)[C@@H](OS(=O)(=O)[O-])[C@@H](OS(=O)(=O)O)[C@@H]2O)[C@@H]1O.[Na+].[Na+].[Na+].[Na+].[Na+].[Na+].[Na+].[Na+].[Na+].[Na+] | Active | 1.91 | 10.96 | Active | Ratio [28]: 4.23 U; Activity [29]: Not Active; Ratio [30]: 24.31 U; Activity [31]: Not Active; inhibition [25]: inactive |
